Values quoted from earlier work as cited in publication PMC6050274, “Buparlisib is a brain penetrable pan-PI3K inhibitor” (Scientific Reports, 2018).

Conditions: cited from earlier work

| SMILES | brain-plasma ratio |
| --- | --- |
| COC1(c2sc3c(N4CCOCC4)nc(-c4cnc(N)nc4)nc3c2C)COC1 [GNE-317] | ≤ 1 |
| Cn1c(=O)n(-c2ccc(C(C)(C)C#N)cc2)c2c3cc(-c4cnc5ccccc5c4)ccc3ncc21 [NVP-BEZ235] | ≤ 1 |
| FC(F)c1nc2ccccc2n1-c1nc(N2CCOCC2)nc(N2CCOCC2)n1 [ZSTK474] | ≤ 1 |
